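How tested: cells in 96-well plates exposed to compound for 48 hours at five concentrations. Definition used: TGI = concentration required for complete inhibition of growth.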
How the values were obtained:
Test in all cases: NCI anticancer screen, dose series, 48 h
786-0 renal = test system: 786-0 renal
A498 renal = test system: A498 renal
A549 NSCLC = test system: A549 NSCLC
ACHN renal = test system: ACHN renal
CAKI-1 renal = test system: CAKI-1 renal
CCRF-CEM leukemia = test system: CCRF-CEM leukemia
COLO 205 colon = test system: COLO 205 colon
DLD-1 colon = test system: DLD-1 colon
DMS 114 small cell lung = test system: DMS 114 small cell lung
DMS 273 small cell lung = test system: DMS 273 small cell lung
EKVX NSCLC = test system: EKVX NSCLC
HCC-2998 colon = test system: HCC-2998 colon
HCT-116 colon = test system: HCT-116 colon
HCT-15 colon = test system: HCT-15 colon
HL-60(TB) leukemia = test system: HL-60(TB) leukemia
HOP-62 NSCLC = test system: HOP-62 NSCLC
HOP-92 NSCLC = test system: HOP-92 NSCLC
IGROV1 ovarian = test system: IGROV1 ovarian
K-562 leukemia = test system: K-562 leukemia
KM12 colon = test system: KM12 colon
KM20L2 colon = test system: KM20L2 colon
LOX IMVI melanoma = test system: LOX IMVI melanoma
LXFL 529 NSCLC = test system: LXFL 529 NSCLC
M14 melanoma = test system: M14 melanoma
M19-MEL melanoma = test system: M19-MEL melanoma
MOLT-4 leukemia = test system: MOLT-4 leukemia
NCI-H23 lung = test system: NCI-H23 lung
NCI-H460 lung = test system: NCI-H460 lung
OVCAR-3 ovarian = test system: OVCAR-3 ovarian
OVCAR-4 ovarian = test system: OVCAR-4 ovarian
OVCAR-8 ovarian = test system: OVCAR-8 ovarian
RPMI-8226 leukemia = test system: RPMI-8226 leukemia
RXF 393 renal = test system: RXF 393 renal
RXF-631 renal = test system: RXF-631 renal
SF-268 CNS = test system: SF-268 CNS
SF-295 CNS = test system: SF-295 CNS
SF-539 CNS = test system: SF-539 CNS
SK-MEL-2 melanoma = test system: SK-MEL-2 melanoma
SK-MEL-28 melanoma = test system: SK-MEL-28 melanoma
SK-MEL-5 melanoma = test system: SK-MEL-5 melanoma
SK-OV-3 ovarian = test system: SK-OV-3 ovarian
SN12C renal = test system: SN12C renal
SNB-19 CNS = test system: SNB-19 CNS
SNB-75 CNS = test system: SNB-75 CNS
SNB-78 CNS = test system: SNB-78 CNS
SR leukemia = test system: SR leukemia
SW-620 colon = test system: SW-620 colon
TK-10 renal = test system: TK-10 renal
U251 CNS = test system: U251 CNS
UACC-257 melanoma = test system: UACC-257 melanoma
UACC-62 melanoma = test system: UACC-62 melanoma
UO-31 renal = test system: UO-31 renal
XF 498 CNS = test system: XF 498 CNS
HOP-18 NSCLC = test system: HOP-18 NSCLC
HT29 colon = test system: HT29 colon
MALME-3M melanoma = test system: MALME-3M melanoma
NCI-H522 lung = test system: NCI-H522 lung
OVCAR-5 ovarian = test system: OVCAR-5 ovarian
NCI-H226 lung = test system: NCI-H226 lung

Measured: TGI

CC1=NN(C(=O)Nc2ccccc2)C(=O)C2CCC(=O)N12 (stereo not given)
not listed: HOP-18 NSCLC | HT29 colon | MALME-3M melanoma | NCI-H522 lung | OVCAR-5 ovarian | NCI-H226 lung
> 100 µM: all other assays above

NC(CCC(=O)NC(CSSCCCCS(=O)O)C(=O)NCC(=O)O)C(=O)O (stereo not given)
not listed: HL-60(TB) leukemia | HOP-92 NSCLC | RPMI-8226 leukemia | SR leukemia | NCI-H226 lung
> 100 µM: all other assays above

O=C1O[C@@H](c2ccc3c(c2)OCO3)C2C(=O)O[C@@H](c3ccc4c(c3)OCO4)C12 (stereo not given in full)
not listed: CAKI-1 renal | DLD-1 colon | LXFL 529 NSCLC | SR leukemia | MALME-3M melanoma | OVCAR-5 ovarian
> 100 µM: all other assays above

From PubChem BioAssay (NCI)
